Laboratory results published in patent publication US20200022995A1, “Novel Immunodulating Small Molecules” (AyuVis Research, Inc., priority 2018, published 2020).

Tests used:
[1] = target: TLR4 (Homo sapiens, UniProt O00206); assay: TLR4 inhibitory and activating activity in THP-1 cells; assay type: cell-based; parameters: endogenous in cells; host or cells: THP-1 monocytes, PMA-stimulated
[2] = test system: THP-1 cells; assay: Monocyte differentiation, phagocytosis and intracellular killing of Pseudomonas aeruginosa in THP-1 cells; assay type: cell-based, human
From the text: Two of these compounds 8 and 32 stimulated monocyte differentiation into macrophages, increased phagocytosis of Pseudomonas aeruginosa (FIG. 18) and increased intracellular killing of bacteria (FIG. 19). These compounds have potential to be used as vaccine adjuvants and in combination with existing antibiotic for prophylactic treatment such as in cystic fibrosis patients.

[3] = test system: hPBMC; assay: Cytotoxicity in hPBMC (MTT); assay type: cell-based, human; conditions: 0.1, 1.0, 10, 100 and 1000 μM, 24 h
Experimental: The cells were treated with compounds and incubated for 24 h. Cell viability was assessed using MTT cell proliferation kit (Promega). All the compounds were not toxic to hPMBC (FIG. 12).

[4] = test system: HUVECs; assay: Cytotoxicity in HUVECs (MTT); assay type: cell-based, human; conditions: 100 μM, 24 h
Experimental: Selected TLR2/4 antagonist compounds 2, 6, 7, 8, 14, 17 and 32 were evaluated for cytotoxicity in HUVECs at 100 μM concentration. The cells were treated with compounds and incubated for 24 h. Cell viability was assessed using MTT cell proliferation kit (Promega). All the compounds were not toxic to HUVECs (FIG. 15).

[5] = test system: HUVECs; assay: Anti-angiogenic activity, VEGF induced tube formation in HUVECs; assay type: cell-based, human; conditions: VEGF 100 ng/mL
Experimental: Selected TLR2/4 antagonist compounds 2, 6, 7, 8, 14, 17 and 32 were evaluated for anti-angiogenic activity using the Tube Formation kit (Cat #3470-096-K). VEGF (100 ng/mL) was used as positive control. These compounds have potential applications in diseases associated with pathological angiogenesis such as solid tumor, […], diabetic retinopathy as well as AMD.

[6] = test system: neonatal pups with BPD; assay: Hyperoxia mouse model of BPD (newborn pups); assay type: in vivo; conditions: for lung injury in neonatal pups with BPD: mouse model of BPD; for TLR4 inhibition in an in vivo model system: neonatal pups with BPD; for lung architecture: saline IV and nanosuspension IN
From the text: Neonatal mice and humans undergo similar stages of lung development but differ with respect to the duration of each stage and its temporal relationship to gestational age. The lungs of the mouse born at term are in the saccular stage and are surfactant sufficient; this can be considered somewhat akin to a human preterm neonate in the same stage of lung development that has been exposed to a full complement of antenatal steroids (which is known to enhance surfactant production). In terms of mimicking the human condition, the most successful hyperoxia models are those that limit exposure to hyperoxia to the saccular stage of pulmonary development. The mouse BPD model involves exposing newborn mice (postnatal day 1 or PN1) to 100% oxygen till PN4 followed by recovery in room air (RA) for another 10 days.
After the recovery period, their lungs were harvested and processed for quantitative PCR, western blotting, histopathology and ELISA.
Each of the compounds 3, 8 or 32 encapsulated in PLGA nanoparticles referred as 3NP, 8NP and 32NP was instilled intranasally (IN) as nanosuspension to newborn pups on PN2 and PN4 at different doses (FIG. 28). After the recovery period, their lungs were harvested and processed for quantitative PCR, western blotting and histopathology and ELISA.
BPD is characterized by large simplified alveoli, inflammation, increased cell death, decreased cell proliferation, dysmorphic capillary configuration, and variable interstitial cellularity and/or fibroproliferation. […] This is determined by measuring the alveolar chord length, septal thickness and radial alveolar count (RAC). In BPD, the alveolar area increases which is characterized by increase in the diameter of the alveolar sacs, the septa become thickened (thus interfering in gaseous exchange) and the RAC, a parameter used to assess the complexity of terminal respiratory unit by pulmonologists, decreases as a result of arrested lung development.

[7] = test system: normal lung epithelial cells (AT-1); conditions: 1 mM and 2 mM, 48 h
Experimental: Compounds 8, 17, 29 and 35 were tested for cytotoxicity in normal lung epithelial cells (AT-1) at concentrations of 1 mM and 2 mM. The cells were treated with compounds and incubated for 48 h. Cell viability was assessed using tryptan blue live/dead assay.

[8] = test system: P. aeruginosa (ATCC-10145 GFP) infected skin wounds; assay: Murine skin wound infection with P. aeruginosa; assay type: in vivo, C57BL/6 mice
Experimental: Five groups of C57BL/6 mice (8-10 weeks old, n=4) were wounded on the dorsal surface. 25 ul containing 10^6 CFU/mL P. aeruginosa in a PBS suspension were pipetted onto the wound and allowed to absorb for at least 3 min. […] Subsequently and for the next 13 days, infected wounds were treated each alternate day with colistin, or with test compounds.

TLR4, sequence (O00206 24-839): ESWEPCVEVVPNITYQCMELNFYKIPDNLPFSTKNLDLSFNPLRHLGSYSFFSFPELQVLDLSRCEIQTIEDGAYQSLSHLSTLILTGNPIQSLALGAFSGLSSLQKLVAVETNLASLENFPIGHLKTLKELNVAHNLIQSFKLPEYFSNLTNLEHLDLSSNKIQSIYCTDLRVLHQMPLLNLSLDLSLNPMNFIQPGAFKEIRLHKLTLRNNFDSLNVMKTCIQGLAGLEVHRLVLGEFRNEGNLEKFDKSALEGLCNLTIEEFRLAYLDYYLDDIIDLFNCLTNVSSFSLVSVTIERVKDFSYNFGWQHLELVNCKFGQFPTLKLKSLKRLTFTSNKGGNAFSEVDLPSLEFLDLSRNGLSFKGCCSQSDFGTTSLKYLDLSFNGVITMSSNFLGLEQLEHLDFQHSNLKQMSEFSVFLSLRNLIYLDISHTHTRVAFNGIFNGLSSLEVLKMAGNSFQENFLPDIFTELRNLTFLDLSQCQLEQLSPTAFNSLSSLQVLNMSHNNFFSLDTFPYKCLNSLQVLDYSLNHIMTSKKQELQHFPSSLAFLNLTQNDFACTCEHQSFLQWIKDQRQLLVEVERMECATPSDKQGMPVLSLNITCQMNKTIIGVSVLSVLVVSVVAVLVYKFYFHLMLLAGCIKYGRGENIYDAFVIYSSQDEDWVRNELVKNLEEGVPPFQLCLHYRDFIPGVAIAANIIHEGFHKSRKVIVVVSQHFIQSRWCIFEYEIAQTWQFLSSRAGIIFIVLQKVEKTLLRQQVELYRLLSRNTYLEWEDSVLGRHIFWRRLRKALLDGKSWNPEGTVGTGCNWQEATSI

Molecule	TLR2/4 antagonist or TLR4 agonist activity as shown in Table-1 [1]	cytotoxicity in hPBMC [3]	cytotoxicity in HUVECs [4]	VEGF induced tube formation [5]	further results
CC(=O)NC1[C@H](Oc2cccc3sc(NC(=O)C(C)(C)C)nc23)O[C@H](CO)[C@@H](O)[C@@H]1O (single isomer, unassigned) [Compound 23]	TLR4 agonists				
CC(=O)NC1[C@H](Oc2ccc(N3CCN(C(C)=O)CC3)cc2)O[C@H](CO)[C@@H](O)[C@@H]1O (single isomer, unassigned) [Compound 28]	TLR4 agonists				
CC(=O)NC1[C@H](Oc2ccc3c(C)cc(=O)oc3c2)O[C@H](CO)[C@@H](O)[C@@H]1O (single isomer, unassigned) [Compound 29]	TLR4 agonists				
CC(=O)NC1[C@H](Oc2ccc(B3OC(C)(C)C(C)(C)O3)cc2)O[C@H](CO)[C@@H](O)[C@@H]1O (single isomer, unassigned) [Compound 32, p-Pinacoloneboronatephenyl 2-acetamido-2-deoxy-β-D-glucopyranoside]		not toxic	not toxic	significantly deceased	monocyte differentiation into macrophages [2]: stimulated; intracellular killing of bacteria ([2]; Pseudomonas aeruginosa, THP-1 cells): increased; phagocytosis of Pseudomonas aeruginosa ([2]; THP-1 cells): increased; lung injury in neonatal pups with BPD [6]: prevent lung injury; TLR4 inhibition in an in vivo model system [6]: inhibit TLR4; lung architecture [6]: restored
CC(=O)NC1C(Oc2ccc3nonc3c2)OC(CO)C(O)C1O (stereo in doubt) [Compound 17, N-((2S,3R,4S,5S,6R)-2-(benzo[c][1,2,5]oxadiazol-5-yloxy)-4,5-dihydroxy-6-(hydroxymethyl)tetrahydro-2H-pyran-3-yl)acetamide]	TLR4 agonists	not toxic	not toxic	significantly deceased	
CC(=O)N[C@@H]1[C@@H](OC(C)=O)[C@H](OC(C)=O)[C@@H](COC(C)=O)O[C@H]1NC(=O)c1ccc(O[C@@H]2O[C@H](CO)[C@@H](O)[C@H](O)[C@H]2NC(C)=O)cc1 [Compound 2]		not toxic	not toxic	significantly deceased	
CC(=O)N[C@@H]1[C@@H](O)[C@H](O)[C@@H](CO)O[C@H]1NC(=O)c1ccc(O[C@@H]2O[C@H](CO)[C@@H](O)[C@H](O)[C@H]2NC(C)=O)cc1 [Compound 3]					lung injury in neonatal pups with BPD [6]: prevent lung injury; TLR4 inhibition in an in vivo model system [6]: inhibit TLR4; lung architecture [6]: restored
CC(=O)N[C@H]1[C@H](Oc2ccc(C(=O)Nc3ccc(O[C@@H]4O[C@H](COC(C)=O)[C@@H](OC(C)=O)[C@H](OC(C)=O)[C@H]4NC(C)=O)cc3)cc2)O[C@H](CO)[C@@H](O)[C@@H]1O [Compound 6]			not toxic	significantly deceased	
CC(=O)N[C@H]1[C@H](Oc2ccc(NC(=O)c3ccc(O[C@@H]4O[C@H](CO)[C@@H](O)[C@H](O)[C@H]4NC(C)=O)cc3)cc2)O[C@H](CO)[C@@H](O)[C@@H]1O [Compound 7]		not toxic	not toxic	significantly deceased	
CC(=O)N[C@H]1[C@H](Oc2ccc(C#N)cc2)O[C@H](CO)[C@@H](O)[C@@H]1O [Compound 14, p-Cyanophenyl 2-acetamido-2-deoxy-β-D-glucopyranoside]		not toxic	not toxic	significantly deceased	
CC(=O)N[C@H]1[C@H](Oc2ccc3c(C)cc(=O)oc3c2)O[C@H](COS(=O)(=O)O)[C@@H](O)[C@@H]1O [Compound 30]	TLR4 agonists				
COc1ccc(OC2OC(CO)C(O)C(O)[C@@H]2NC(C)=O)cc1 (stereo partly shown) [Compound 38]	TLR4 agonists				
CC(=O)N[C@@H]1C(Oc2ccc(Cl)cc2)OC(CO)C(O)C1O (stereo partly shown) [Compound 39]	TLR4 agonists				
CC(=O)N[C@@H]1C(Oc2ccccc2O)OC(CO)C(O)C1O (stereo partly shown) [Compound 40]	TLR4 agonists				
CC(=O)O[C@H]1C(=O)[C@@]2(C)[C@H]([C@H](OC(=O)c3ccccc3)[C@]3(O)C[C@H](OC(=O)[C@H](O)[C@@H](NC(=O)c4ccccc4)c4ccccc4)C(C)=C1C3(C)C)[C@]1(OC(C)=O)CO[C@@H]1C[C@@H]2O [Taxol]					cytotoxicity in normal lung epithelial cells (AT-1) [7]: toxic
colistin [reference compound]					wound closure at day 13 ([8]; 25 μl Colistin 4 μg/ml or compound 100 μg/ml, each alternate day): complete closure; re-epithelialization and granulation tissue versus controls ([8]; H&E histology, day 13 post-injury): significantly enhanced
